# According to ChEMBL document CHEMBL3045868, “Synthesis and antibacterial activities of para-alkoxy phenyl--ketoaldehyde derivatives” (Med Chem Res, 2013):
# Tests used:
# Assay type in all cases: functional
# Staphylococcus aureus [1] = experiment: Antibacterial activity against Staphylococcus aureus clinical isolate 14 assessed as growth inhibition at pH 9 after 16 to 18 hr by NCCLS agar dilution method
# Staphylococcus aureus [2] = experiment: Antibacterial activity against Staphylococcus aureus clinical isolate 12 assessed as growth inhibition at pH 9 after 16 to 18 hr by NCCLS agar dilution method
# Staphylococcus aureus [3] = experiment: Antibacterial activity against Staphylococcus aureus clinical isolate 10 assessed as growth inhibition at pH 9 after 16 to 18 hr by NCCLS agar dilution method
# Staphylococcus aureus [4] = experiment: Antibacterial activity against Staphylococcus aureus clinical isolate 9 assessed as growth inhibition at pH 9 after 16 to 18 hr by NCCLS agar dilution method
# Staphylococcus aureus [5] = experiment: Antibacterial activity against Staphylococcus aureus clinical isolate 3 assessed as growth inhibition at pH 7 after 16 to 18 hr by NCCLS agar dilution method
# Staphylococcus aureus [6] = experiment: Bactericidal activity against Staphylococcus aureus clinical isolate 5 after 24 hr; conditions: isolate 5, 24 h
# Staphylococcus aureus [7] = experiment: Bactericidal activity against Staphylococcus aureus clinical isolate 1 after 24 hr; conditions: isolate 1, 24 h
# Staphylococcus aureus [8] = experiment: Antibacterial activity against Staphylococcus aureus clinical isolate 10 assessed as growth inhibition after 16 to 18 hr by NCCLS agar dilution method
# Staphylococcus aureus [9] = experiment: Antibacterial activity against Staphylococcus aureus clinical isolate 8 assessed as growth inhibition after 16 to 18 hr by NCCLS agar dilution method
# Staphylococcus aureus [10] = experiment: Antibacterial activity against Staphylococcus aureus clinical isolate 23 assessed as growth inhibition at pH 5 after 16 to 18 hr by NCCLS agar dilution method
# Staphylococcus aureus [11] = experiment: Antibacterial activity against Staphylococcus aureus clinical isolate 23 assessed as growth inhibition at pH 7 after 16 to 18 hr by NCCLS agar dilution method
# Staphylococcus aureus [12] = experiment: Antibacterial activity against Staphylococcus aureus clinical isolate 22 assessed as growth inhibition at pH 7 after 16 to 18 hr by NCCLS agar dilution method
# Staphylococcus aureus [13] = experiment: Antibacterial activity against Staphylococcus aureus clinical isolate 21 assessed as growth inhibition at pH 7 after 16 to 18 hr by NCCLS agar dilution method
# Staphylococcus aureus [14] = experiment: Antibacterial activity against Staphylococcus aureus clinical isolate 20 assessed as growth inhibition at pH 7 after 16 to 18 hr by NCCLS agar dilution method
# Staphylococcus aureus [15] = experiment: Antibacterial activity against Staphylococcus aureus clinical isolate 18 assessed as growth inhibition at pH 7 after 16 to 18 hr by NCCLS agar dilution method
# Staphylococcus aureus [16] = experiment: Antibacterial activity against Staphylococcus aureus clinical isolate 12 assessed as growth inhibition at pH 7 after 16 to 18 hr by NCCLS agar dilution method
# Staphylococcus aureus [17] = experiment: Antibacterial activity against Staphylococcus aureus clinical isolate 9 assessed as growth inhibition at pH 7 after 16 to 18 hr by NCCLS agar dilution method
# Staphylococcus aureus [18] = experiment: Antibacterial activity against Staphylococcus aureus clinical isolate 11 assessed as growth inhibition at pH 5 after 16 to 18 hr by NCCLS agar dilution method
# Staphylococcus aureus [19] = experiment: Antibacterial activity against Staphylococcus aureus clinical isolate 10 assessed as growth inhibition at pH 5 after 16 to 18 hr by NCCLS agar dilution method
# Staphylococcus aureus [20] = experiment: Antibacterial activity against Staphylococcus aureus clinical isolate 7 assessed as growth inhibition at pH 5 after 16 to 18 hr by NCCLS agar dilution method
# Staphylococcus aureus [21] = experiment: Antibacterial activity against Staphylococcus aureus clinical isolate assessed as growth inhibition at pH 7 after 16 to 18 hr by NCCLS agar dilution method
# Staphylococcus aureus [22] = experiment: Antibacterial activity against Staphylococcus aureus clinical isolate assessed as growth inhibition at pH 5 after 16 to 18 hr by NCCLS agar dilution method
# Staphylococcus aureus [23] = experiment: Antibacterial activity against Staphylococcus aureus clinical isolate 21 assessed as growth inhibition at pH 9 after 16 to 18 hr by NCCLS agar dilution method
# Staphylococcus aureus [24] = experiment: Antibacterial activity against Staphylococcus aureus clinical isolate 16 assessed as growth inhibition at pH 9 after 16 to 18 hr by NCCLS agar dilution method
# Helicobacter pylori [25] = experiment: Antibacterial activity against Helicobacter pylori 06-8 assessed as growth inhibition after 16 to 18 hr NCCLS agar dilution method
# Staphylococcus aureus [26] = experiment: Antibacterial activity against Staphylococcus aureus clinical isolate 3 assessed as growth inhibition at pH 9 after 16 to 18 hr by NCCLS agar dilution method
# Helicobacter pylori [27] = experiment: Antibacterial activity against Helicobacter pylori 05-5 assessed as growth inhibition after 16 to 18 hr NCCLS agar dilution method
# Helicobacter pylori [28] = experiment: Antibacterial activity against Helicobacter pylori 05-2 assessed as growth inhibition after 16 to 18 hr NCCLS agar dilution method
# Helicobacter pylori [29] = experiment: Antibacterial activity against Helicobacter pylori 05-1 assessed as growth inhibition after 16 to 18 hr NCCLS agar dilution method
# Helicobacter pylori [30] = experiment: Antibacterial activity against Helicobacter pylori ATCC 11637 assessed as growth inhibition after 16 to 18 hr NCCLS agar dilution method
# Staphylococcus aureus [31] = experiment: Antibacterial activity against Staphylococcus aureus clinical isolate 16 assessed as growth inhibition at pH 5 after 16 to 18 hr by NCCLS agar dilution method
# Staphylococcus aureus [32] = experiment: Antibacterial activity against Staphylococcus aureus clinical isolate 15 assessed as growth inhibition at pH 5 after 16 to 18 hr by NCCLS agar dilution method
# Staphylococcus aureus [33] = experiment: Antibacterial activity against Staphylococcus aureus clinical isolate 14 assessed as growth inhibition at pH 5 after 16 to 18 hr by NCCLS agar dilution method
# Staphylococcus aureus [34] = experiment: Bactericidal activity against Staphylococcus aureus clinical isolate 9 after 24 hr; conditions: isolate 9, 24 h
# Staphylococcus aureus [35] = experiment: Antibacterial activity against Staphylococcus aureus clinical isolate 6 assessed as growth inhibition at pH 5 after 16 to 18 hr by NCCLS agar dilution method
# Staphylococcus aureus [36] = experiment: Bactericidal activity against methicillin-resistant Staphylococcus aureus isolate 5 after 24 hr; conditions: isolate 5, 24 h
# Staphylococcus aureus [37] = experiment: Bactericidal activity against methicillin-resistant Staphylococcus aureus isolate 4 after 24 hr; conditions: isolate 4, 24 h
# Staphylococcus aureus [38] = experiment: Bactericidal activity against methicillin-resistant Staphylococcus aureus isolate 1 after 24 hr; conditions: isolate 1, 24 h
# Staphylococcus aureus [39] = experiment: Antibacterial activity against methicillin-resistant Staphylococcus aureus assessed as growth inhibition after 16 to 18 hr by NCCLS agar dilution method
# Staphylococcus aureus [40] = experiment: Antibacterial activity against methicillin-resistant Staphylococcus aureus isolate 5 assessed as growth inhibition after 16 to 18 hr by NCCLS agar dilution method
# Staphylococcus aureus [41] = experiment: Antibacterial activity against methicillin-resistant Staphylococcus aureus isolate 3 assessed as growth inhibition after 16 to 18 hr by NCCLS agar dilution method
# Staphylococcus aureus [42] = experiment: Antibacterial activity against methicillin-resistant Staphylococcus aureus isolate 1 assessed as growth inhibition after 16 to 18 hr by NCCLS agar dilution method
# Staphylococcus aureus [43] = experiment: Antibacterial activity against Staphylococcus aureus clinical isolate assessed as growth inhibition after 16 to 18 hr by NCCLS agar dilution method
smiles,measurement,setting,value
CO/N=C/CC(=O)c1ccc(OC)cc1,MIC,Staphylococcus aureus [1],8 µg/mL
same,MIC,Staphylococcus aureus [2],8 µg/mL
same,MIC,Staphylococcus aureus [3],8 µg/mL
same,MIC,Staphylococcus aureus [4],8 µg/mL
same,MIC,Staphylococcus aureus [5],16 µg/mL
same,MBC,Staphylococcus aureus [6],64 µg/mL
same,MBC,Staphylococcus aureus [7],128 µg/mL
same,MIC,Staphylococcus aureus [8],16 µg/mL
same,MIC,Staphylococcus aureus [9],16 µg/mL
same,MIC,Staphylococcus aureus [10],16 µg/mL
same,MIC,Staphylococcus aureus [11],16 µg/mL
same,MIC,Staphylococcus aureus [12],16 µg/mL
same,MIC,Staphylococcus aureus [13],16 µg/mL
same,MIC,Staphylococcus aureus [14],16 µg/mL
same,MIC,Staphylococcus aureus [15],16 µg/mL
same,MIC,Staphylococcus aureus [16],32 µg/mL
same,MIC,Staphylococcus aureus [17],32 µg/mL
same,MIC,Staphylococcus aureus [18],32 µg/mL
same,MIC,Staphylococcus aureus [19],16 µg/mL
same,MIC,Staphylococcus aureus [20],16 µg/mL
same,MIC50,Staphylococcus aureus [21],16 µg/mL
same,MIC90,Staphylococcus aureus [21],32 µg/mL
same,MIC50,Staphylococcus aureus [22],32 µg/mL
same,MIC90,Staphylococcus aureus [22],64 µg/mL
same,MIC,Staphylococcus aureus [23],8 µg/mL
same,MIC,Staphylococcus aureus [24],8 µg/mL
same,MIC,Helicobacter pylori [25],32 µg/mL
same,MIC,Staphylococcus aureus [26],8 µg/mL
same,MIC,Helicobacter pylori [27],32 µg/mL
same,MIC,Helicobacter pylori [28],16 µg/mL
same,MIC,Helicobacter pylori [29],32 µg/mL
same,MIC,Helicobacter pylori [30],32 µg/mL
same,MIC,Staphylococcus aureus [31],32 µg/mL
same,MIC,Staphylococcus aureus [32],16 µg/mL
same,MIC,Staphylococcus aureus [33],32 µg/mL
same,MBC,Staphylococcus aureus [34],128 µg/mL
same,MIC,Staphylococcus aureus [35],64 µg/mL
same,MBC,Staphylococcus aureus [36],256 µg/mL
same,MBC,Staphylococcus aureus [37],256 µg/mL
same,MBC,Staphylococcus aureus [38],128 µg/mL
same,MIC50,Staphylococcus aureus [39],8 µg/mL
same,MIC90,Staphylococcus aureus [39],8 µg/mL
same,MIC,Staphylococcus aureus [40],8 µg/mL
same,MIC,Staphylococcus aureus [41],8 µg/mL
same,MIC,Staphylococcus aureus [42],8 µg/mL
same,MIC50,Staphylococcus aureus [43],16 µg/mL
same,MIC90,Staphylococcus aureus [43],16 µg/mL
